PubChem BioAssay AID330 (DTP/NCI, 2004)
Values joined by “and” are separate entries in the source; they are usually repeats but may differ in a detail not shown here. Equal values may be shown once. Inconclusive results and toxic doses are left out. The calls were made as follows: active = survival T/C of 150% or more; inactive = T/C below 125% in these data.

System: P388 leukemia ip, CD2F1 mice, survival T/C
Assay: NCI In Vivo Anticancer Drug Screen. Data for tumor model P388 Leukemia (intraperitoneal) in CD2F1 (CDF1) mice
Conditions: endpoint: median survival time, higher = longer survival
Summary of the method: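 Mice carrying the transplanted tumor received test compound or vehicle. Survival was recorded in each group, and the value is the treated-group measurement divided by that of the vehicle-treated control group.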

[1] = dose: 50.0 mg/kg/injection, schedule: Q01DX005 (ip), vehicle: Klucel (hydroxypropylcellulose) (HPC)
[2] = dose: 100.0 mg/kg/injection, schedule: Q01DX005 (ip), vehicle: Klucel (hydroxypropylcellulose) (HPC)
[3] = dose: 200.0 mg/kg/injection, schedule: Q01DX005 (ip), vehicle: Klucel (hydroxypropylcellulose) (HPC)
[4] = dose: 6.25 mg/kg/injection, schedule: Q01DX009 (ip), vehicle: Klucel (hydroxypropylcellulose) (HPC)
[5] = dose: 12.5 mg/kg/injection, schedule: Q01DX009 (ip), vehicle: Klucel (hydroxypropylcellulose) (HPC)
[6] = dose: 25.0 mg/kg/injection, schedule: Q01DX005 (ip), vehicle: saline with Tween-80
[7] = dose: 50.0 mg/kg/injection, schedule: Q01DX005 (ip), vehicle: saline with Tween-80
[8] = dose: 100.0 mg/kg/injection, schedule: Q01DX005 (ip), vehicle: saline with Tween-80
[9] = dose: 200.0 mg/kg/injection, schedule: Q01DX005 (ip), vehicle: saline with Tween-80
[10] = dose: 50.0 mg/kg/injection, schedule: Q01DX009 (ip), vehicle: Klucel (hydroxypropylcellulose) (HPC)
[11] = dose: 100.0 mg/kg/injection, schedule: Q01DX009 (ip), vehicle: Klucel (hydroxypropylcellulose) (HPC)
[12] = dose: 50.0 mg/kg/injection, schedule: Q01DX009 (ip), vehicle: saline with Tween-80
[13] = dose: 100.0 mg/kg/injection, schedule: Q01DX009 (ip), vehicle: saline with Tween-80
[14] = dose: 200.0 mg/kg/injection, schedule: Q01DX009 (ip), vehicle: saline with Tween-80
[15] = dose: 12.5 mg/kg/injection, schedule: Q01DX005 (ip), vehicle: saline with Tween-80

Measured: T/C

CN1OC(CS(=O)(=O)c2ccccc2)(S(=O)(=O)c2ccccc2)CC1c1ccccc1 (stereo not drawn)
inactive: [1] 103 % of control | [2] 101 % of control | [3] 101 % of control

CCN1C2OC3CCC2(C)C2C(OC)C4(O)C1C32C1CC2C(OC)CC4(O)C1C2O (stereo not drawn)
inactive: dose: 0.94 mg/kg/injection, schedule: Q01DX005 (ip), vehicle: saline + alcohol 106 % of control | dose: 1.88 mg/kg/injection, schedule: Q01DX005 (ip), vehicle: saline + alcohol 102 % of control | dose: 3.75 mg/kg/injection, schedule: Q01DX005 (ip), vehicle: saline + alcohol 108 % of control | dose: 7.5 mg/kg/injection, schedule: Q01DX005 (ip), vehicle: saline + alcohol 102 % of control

CB1N(c2ccccc2)N=NN1C(C)(C)C
inactive: dose: 15.0 mg/kg/injection, schedule: Q01DX005 (ip), vehicle: Klucel (hydroxypropylcellulose) (HPC) 97 % of control | dose: 30.0 mg/kg/injection, schedule: Q01DX005 (ip), vehicle: Klucel (hydroxypropylcellulose) (HPC) 102 % of control | dose: 60.0 mg/kg/injection, schedule: Q01DX005 (ip), vehicle: Klucel (hydroxypropylcellulose) (HPC) 107 % of control | dose: 120.0 mg/kg/injection, schedule: Q01DX005 (ip), vehicle: Klucel (hydroxypropylcellulose) (HPC) 110 % of control | dose: 240.0 mg/kg/injection, schedule: Q01DX005 (ip), vehicle: Klucel (hydroxypropylcellulose) (HPC) 91 % of control

COc1ccc2c(Cl)cc(NC(=S)Nc3ccccc3)nc2c1
inactive: [4] 103 % of control | [5] 104 % of control | dose: 25.0 mg/kg/injection, schedule: Q01DX009 (ip), vehicle: Klucel (hydroxypropylcellulose) (HPC) 96 % of control

ClCCN(CCCl)c1ccc(/C=N/Nc2c3c(nc4ccccc24)CCCC3)cc1
inactive: dose: 0.39 mg/kg/injection, schedule: Q01DX009 (ip), vehicle: Klucel (hydroxypropylcellulose) (HPC) 95 % of control | dose: 0.78 mg/kg/injection, schedule: Q01DX009 (ip), vehicle: Klucel (hydroxypropylcellulose) (HPC) 108 % of control | dose: 1.56 mg/kg/injection, schedule: Q01DX009 (ip), vehicle: Klucel (hydroxypropylcellulose) (HPC) 95 % of control | [5] 90 % of control

C[C@]12CC[C@H](O)CC1=CC[C@@H]1[C@@H]2CC[C@]2(C)C(=O)CC[C@@H]12
inactive: [6] 94 % of control | [7] 90 % of control | [8] 91 % of control | [9] 90 % of control

CC12CC3CC(C1)CC(Br)(C3)C2
inactive: [10] 103 % of control and 111 % of control | [11] 100 % of control | dose: 200.0 mg/kg/injection, schedule: Q01DX009 (ip), vehicle: Klucel (hydroxypropylcellulose) (HPC) 100 % of control

O=c1nc(-c2ccccc2)sc(=O)[nH]1
inactive: [10] 102 % of control | [11] 111 % of control

O=C(NCCCCCCCCNC(=O)C12CC3CC(CC(C3)C1)C2)C12CC3CC(CC(C3)C1)C2
inactive: [7] 86 % of control | [8] 86 % of control | [9] 96 % of control

CCN(CC)CC(=O)c1ccc(O)c(O)c1
inactive: [12] 91 % of control | [13] 98 % of control and 106 % of control | [14] 112 % of control and 123 % of control | dose: 400.0 mg/kg/injection, schedule: Q01DX009 (ip), vehicle: saline with Tween-80 116 % of control and 117 % of control

O=C(Nc1cc(Cl)ccc1C(=O)O)c1cccc(C[n+]2ccccc2)c1
inactive: [15] 91 % of control | [6] 102 % of control | [7] 102 % of control

CCOC(=O)c1cc2c(OC)c(OC)ccc2cc1N
inactive: dose: 12.5 mg/kg/injection, schedule: Q01DX009 (ip), vehicle: other 100 % of control | dose: 25.0 mg/kg/injection, schedule: Q01DX009 (ip), vehicle: other 103 % of control | dose: 50.0 mg/kg/injection, schedule: Q01DX009 (ip), vehicle: other 100 % of control | dose: 100.0 mg/kg/injection, schedule: Q01DX009 (ip), vehicle: other 115 % of control

C#CCn1cnc2c(N)ncnc21
inactive: [1] 97 % of control | [2] 93 % of control

COc1ccc(Nc2ncc(C)n2-c2ccc(OC)cc2)cc1
inactive: [12] 98 % of control | [13] 98 % of control | [14] 102 % of control

CC1(C)N[P+]2(Nc3ccccc3O2)OC1=O (stereo not drawn)
inactive: dose: 100.0 mg/kg/injection, schedule: Q04DX002 (ip), vehicle: Klucel (hydroxypropylcellulose) (HPC) 97 % of control | dose: 200.0 mg/kg/injection, schedule: Q04DX002 (ip), vehicle: Klucel (hydroxypropylcellulose) (HPC) 93 % of control | dose: 400.0 mg/kg/injection, schedule: Q04DX002 (ip), vehicle: Klucel (hydroxypropylcellulose) (HPC) 87 % of control

NC(=O)CCSC(N)=O
inactive: [7] 102 % of control | [8] 100 % of control | [9] 102 % of control

O=C(Nc1ccc(N=Nc2ccccc2)cc1)SCCO
inactive: [7] 102 % of control | [8] 108 % of control

COC1=C(OC)C(=O)C(OC)=C(OC)C1=O
inactive: dose: 12.5 mg/kg/injection, schedule: Q01DX009 (ip), vehicle: saline with Tween-80 106 % of control | dose: 25.0 mg/kg/injection, schedule: Q01DX009 (ip), vehicle: saline with Tween-80 98 % of control | [12] 104 % of control

COc1ccc(N2C(=O)CC(c3cc(C)ccc3OC)CC2=O)cc1
inactive: dose: 100.0 mg/kg/injection, schedule: Q01DX001 (ip), vehicle: saline 98 % of control | dose: 200.0 mg/kg/injection, schedule: Q01DX001 (ip), vehicle: saline 98 % of control | dose: 400.0 mg/kg/injection, schedule: Q01DX001 (ip), vehicle: saline 91 % of control

NNc1c(C(N)=O)c2c(N)ncnc2n1C1OC(CO)C(O)C1O (stereo not drawn)
active: dose: 3.12 mg/kg/injection, schedule: Q01DX005 (ip), vehicle: Klucel (hydroxypropylcellulose) (HPC) 157 % of control | dose: 6.25 mg/kg/injection, schedule: Q01DX005 (ip), vehicle: Klucel (hydroxypropylcellulose) (HPC) 166 % of control | dose: 12.5 mg/kg/injection, schedule: Q01DX005 (ip), vehicle: Klucel (hydroxypropylcellulose) (HPC) 157 % of control
inactive: dose: 50.0 mg/kg/injection, schedule: Q04DX003 (ip), vehicle: Klucel (hydroxypropylcellulose) (HPC) 115 % of control | dose: 100.0 mg/kg/injection, schedule: Q04DX003 (ip), vehicle: Klucel (hydroxypropylcellulose) (HPC) 115 % of control | dose: 100.0 mg/kg/injection, schedule: Q04DX003 (ip), vehicle: water 120 % of control | dose: 200.0 mg/kg/injection, schedule: Q04DX003 (ip), vehicle: water 86 % of control

CCCCCCCCCCCC(=O)NCC(=O)NC1CC(OC2CC(O)(C(C)=O)Cc3c(O)c4c(c(O)c32)C(=O)c2c(OC)cccc2C4=O)OC(C)C1O (stereo not drawn)
inactive: dose: 0.75 mg/kg/injection, schedule: Q01DX009 (ip), vehicle: other 107 % of control | dose: 1.5 mg/kg/injection, schedule: Q01DX009 (ip), vehicle: other 108 % of control | dose: 3.0 mg/kg/injection, schedule: Q01DX009 (ip), vehicle: other 112 % of control | dose: 6.0 mg/kg/injection, schedule: Q01DX009 (ip), vehicle: other 116 % of control | dose: 12.0 mg/kg/injection, schedule: Q01DX009 (ip), vehicle: other 99 % of control

CC1N(C)c2cc([N+](=O)[O-])ccc2C1(C)C (stereo not drawn)
inactive: [7] 95 % of control | [8] 100 % of control | [9] 87 % of control

COc1ccccc1N/N=c1/c2n(-c3ccc(Cl)cc3)c(=S)n(-c3ccccn3)c1=NCCN=2
inactive: [15] 97 % of control | [6] 100 % of control | [7] 102 % of control and 94 % of control

NC1CNC(C(=O)O)=C(CC(=O)O)C1=O (stereo not drawn)
inactive: dose: 4.25 mg/kg/injection, schedule: Q01DX005 (ip), vehicle: sodium bicarbonate 101 % of control | dose: 8.5 mg/kg/injection, schedule: Q01DX005 (ip), vehicle: sodium bicarbonate 99 % of control | dose: 17.0 mg/kg/injection, schedule: Q01DX005 (ip), vehicle: sodium bicarbonate 106 % of control | dose: 34.0 mg/kg/injection, schedule: Q01DX005 (ip), vehicle: sodium bicarbonate 99 % of control

CN1CC2OC2(c2ccccc2)C(c2ccccc2)C1 (stereo not drawn)
inactive: [7] 102 % of control | [8] 102 % of control

CCCCCCC(C)NCC(O)COc1cccc(C)c1 (stereo not drawn)
inactive: dose: 3.12 mg/kg/injection, schedule: Q01DX009 (ip), vehicle: Klucel (hydroxypropylcellulose) (HPC) 111 % of control | [4] 107 % of control | [5] 111 % of control

CC(C)CNC1=CC(=S)NC(C)(C)C1
inactive: [1] 99 % of control | [2] 101 % of control | [3] 94 % of control

CC[CH2][Sn]([CH2]CC)([CH2]CC)[CH2]CCBr
inactive: [12] 106 % of control | [13] 100 % of control
